From patent publication US9328093B2, “Selective inhibitors of ubiquitin specific protease 7, the pharmaceutical compositions thereof and their therapeutic applications” (HYBRIGENICS SA, priority 2010, dated 2016)
Where two headings read alike, the source gives them in different places.

Columns and labels:
USP8 = biological target: T1, USP8 (Homo sapiens, UniProt P40818); assay: USP8 assay with GST-Ub52-Flag substrate (HTRF); format: biochemical; conditions: USP8 400 pM
T1 construct: His (from pFastBac-HT vector) (N); made in house; host or cells: Sf9 or High Five insect cells, baculovirus
T1 sequence (P40818 1-1118): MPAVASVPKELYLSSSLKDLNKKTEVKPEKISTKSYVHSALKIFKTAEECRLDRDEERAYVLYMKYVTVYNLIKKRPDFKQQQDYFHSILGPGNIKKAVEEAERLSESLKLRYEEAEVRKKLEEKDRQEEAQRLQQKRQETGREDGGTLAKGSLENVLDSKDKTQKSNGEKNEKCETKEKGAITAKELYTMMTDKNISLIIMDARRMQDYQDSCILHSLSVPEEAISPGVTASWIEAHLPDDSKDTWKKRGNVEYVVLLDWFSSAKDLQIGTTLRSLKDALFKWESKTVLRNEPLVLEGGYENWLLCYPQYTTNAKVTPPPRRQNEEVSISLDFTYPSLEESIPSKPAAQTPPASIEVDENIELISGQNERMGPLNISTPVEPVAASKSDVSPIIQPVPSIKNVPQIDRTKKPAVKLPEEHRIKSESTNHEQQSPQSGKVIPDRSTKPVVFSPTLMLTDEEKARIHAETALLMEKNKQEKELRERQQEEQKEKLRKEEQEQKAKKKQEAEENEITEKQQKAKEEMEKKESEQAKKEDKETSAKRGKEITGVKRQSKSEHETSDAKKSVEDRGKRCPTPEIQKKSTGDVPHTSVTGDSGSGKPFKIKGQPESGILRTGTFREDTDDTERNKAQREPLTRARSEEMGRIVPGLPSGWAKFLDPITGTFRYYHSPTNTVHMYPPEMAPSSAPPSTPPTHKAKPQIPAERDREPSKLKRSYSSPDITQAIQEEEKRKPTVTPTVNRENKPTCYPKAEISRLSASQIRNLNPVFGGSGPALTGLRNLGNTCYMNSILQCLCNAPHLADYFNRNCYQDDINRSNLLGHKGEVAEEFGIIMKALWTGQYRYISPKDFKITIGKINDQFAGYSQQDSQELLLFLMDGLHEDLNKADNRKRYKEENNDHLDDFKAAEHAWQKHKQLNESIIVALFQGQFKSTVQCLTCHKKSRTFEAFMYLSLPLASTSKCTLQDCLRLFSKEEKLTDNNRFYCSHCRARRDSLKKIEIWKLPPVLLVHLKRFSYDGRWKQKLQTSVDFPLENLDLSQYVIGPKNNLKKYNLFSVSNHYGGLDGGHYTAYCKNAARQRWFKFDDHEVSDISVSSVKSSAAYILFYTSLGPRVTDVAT
Method: (§1) For compounds 26 to 38, the in-vitro assays on USP7 and USP8 were carried out according to the following procedure
(§2) The present examples 26 to 38 makes it possible to validate the use of GST-Ub52-Flag in an assay based on the time-resolved measurement of fluorescence emitted by […] in homogenous medium.
(§3) The assay is carried out on multiwell assay plates. The plates are analyzed on a PHERAstar fluorimeter (BMG) after an overnight incubation at 4° C. (excitation 337 nm, emission 620 and 665 nm).
(§4) The reagents used were as follows: • Solution of USP7 at 200 pM and USP8 at 400 pM in 50 mM Tris HCl pH 7.6, Bovine Serum Albumin 0.05%, DTT 5 mM. • Anti-Flag-K (CIS bio international), solution at 0.2 μM in 0.8 M KF, 0.1 Bovine Serum Albumin, Tris HCl 25 mM pH 7.6. • Anti-GST antibody-XL665 conjugate (CIS bio international), solution at 2.6 μM in 0.8 M KF, 0.1% Bovine Serum Albumin, Tris HCl 25 mM pH 7.6. • GST-Ub52-flag solution at 14.75 μM & MBP_Ub52 at 37.7 μM are prepared by dilutions from the stock solution described above in 50 mM Tris HCl pH 7.6, EDTA 0.5 mM, Bovine Serum Albumin 0.05%, DTT 5 mM.
(§5) The enzyme reaction is carried out by mixing GST-Ub52-flag solution with 5 μl of USP7 solution (200 pM final) or 5 μl of USP8 (400 pM final). This mixture is incubated for one hour at room temperature on a multiwell assay plate. A 10 μl mixture of 5 μl of anti-Flag-K solution (0.2 μM) plus 5 μl of anti-GST-XL665 antibody (2.6 μM) is added to each well of the multiwell assay plate. The plate is read after an overnight incubation at 4° C. on a PHERAstar fluorimeter (BMG).
(§6) The decrease in the signal correlates with the increase in enzyme activity i.e. the cleavage of GST-Ub52-Flag substrate. The format used is therefore entirely suitable for a method of assaying an enzyme of the deubiquitinating type such as ubiquitin specific protease, but also for determining a modulator of this enzyme activity.
(§7) The same procedures as mentioned above for assaying the activity of enzymes of the deubiquitinating type are carried out but the various reaction mixtures are incubated with identical enzyme concentration, in the presence or absence of a test compounds 26 to 38. Data (mean values+/− standard deviation) were analyzed as % of control (no compound) and plotted as percentage versus the Log of the compound concentration using GraphPad (Prism).

USP7 [1] = biological target: T2, USP7 (Homo sapiens, UniProt Q93009); assay: USP7 assay with GST-Ub52-Flag substrate (HTRF); format: biochemical; conditions: USP7 200 pM
T2 construct: Full-length wild-type human USP7 and its catalytic mutant (cysteine 223 replaced by alanine, C223A) were produced as N-terminally His-tagged fusions; His (N); made in house; host or cells: Spodoptera frugiperda Sf9 (or High Five) insect cells, baculovirus pFastBac-HT-B
Method: as §1, §2, §3, §4, §5, §6, §7

[2] = tested on: HCT116 colon cancer cells; assay: HCT116 cell viability and proliferation assay (MTS); format: cell-based; conditions: HCT116, 72 hours, read-out: Cell viability (MTS): HCT116 GI50 Day3
Method: HCT116 colon cancer cells were obtained from ATCC (American Type Culture Collection), and maintained in Mc Coy's 5A medium containing 10% FBS, 3 mM glutamine and 1% penicillin/streptomycin. Cells were incubated at 37° C. in a humidified atmosphere containing 5% CO2.
Cell viability was assayed using the MTS technique in 96-well culture plates (CellTiter 96® Aqueous Non-Radioactive Cell Proliferation Assay, Promega) according to the manufacturer's instructions. MTS (3-(4,5-dimethyl-thiazol-2-yl)-5-(3-carboxy-methoxyphenyl)-2-(4-sulfophenyl)-2H-tetra-zolium) is a MTT-derived tetrazolium that is reduced in metabolically active cells into a soluble, cell-permeant formazan. The amount of formazan, detected by its absorbance at 492 nm is proportional to the number of living, metabolically active cells.
10^3 HCT116 cells were seeded per well. 24 hours later, the medium was changed and the cells treated in triplicate with the concentrations of each compound from 100 μM to 50 nM. The compounds were diluted in 100% DMSO, whose final concentration on cells was kept at 0.5%.
Cells were incubated with the compounds for 72 hours, and their viability then assayed by the addition of MTS for 2 hours. Absorbance at 492 nm was measured directly from the 96-well culture plates. Gl50 (Growth Inhibition 50) concentrations for each compound were calculated using a sigmoidal variable slope fit (Prism 4.0, Graphpad Softwares). Values represent mean of three independent experiments.

USP7 [3] = biological target: T2, USP7; assay: USP7 activity assay (Ub-AMC substrate); format: biochemical; conditions: Ub-AMC 300 nM, USP7 100 pM, 30 min pre-incubation
From the text: The cDNA encoding USP7 was obtained by PCR amplification from placenta mRNA. USP7 cDNA was subcloned by PCR into a baculovirus expression vector (pFastBac-HT; Invitrogen). Full-length wild-type human USP7 and its catalytic mutant (cysteine 223 replaced by alanine, C223A) were produced as N-terminally His-tagged fusions in Spodoptera frugiperda cells (Sf9, Invitrogen), using the Bac-to-Bac Baculovirus system from Invitrogen according to the manufacturer's instructions. pFastBac-HT-B-USP7 was used to transform DH10bac cells (Invitrogen), and blue/white selection was carried out on X-gal/IPTG agar plates. Bacmid DNA was prepared by an alkaline lysis procedure. The integrity of the bacmid minipreps and their orientation were checked by PCR, using generic and specific primers. Sf9 insect cells were cultured in InsectXpress medium (Cambrex) at 27° C. and transfected with the corresponding bacmid, using GeneShuttle 40 (Q-BIOgen). Viruses were recovered in the supernatant 72 h after transfection. Viruses were amplified by infecting insect cells (Sf9 or High Five cells; invitrogen) in 50 ml InsectXpress medium in a 150 cm^2 cell culture flask with 500 μl of the supernatant from transfected Sf9 cells. Following the second round of amplification, infected cells were recovered by rapid SDS lysis, boiled for 5 min at 100° C., sonicated briefly and centrifuged for 20 min at 14,000 g. Expression levels in infected Sf9 cells were compared with those in uninfected cells. Fusion proteins were then allowed to bind to TALON beads (BD Biosciences, TALON metal affinity resin) for 30 min at 4° C. with gentle rocking. Beads were extensively washed (50 mM sodium phosphate buffer pH 7.0, 500 mM NaCl, 10 mM Imidazole, 0.5% Triton X-100 and 10% glycerol) and bound proteins were eluted in wash buffer supplemented with 250 mM Imidazole (Sigma). Eluted fractions were resolved on 4-12% NuPAGE gels (Novex, Invitrogen). Fractions containing high concentrations of purified proteins (purity >95%) were dialyzed (20 mM Tris HCl pH 7.6, 200 mM NaCl, 1 mM DTT, 1 mM EDTA and 10% glycerol) were aliquoted and snap frozen in liquid nitrogen before storage at −80° C.
USP7 was diluted in USP buffer (50 mM Tris HCl; 0.5 mM EDTA; 5 mM DTT; 0.01% Triton X-100; Bovine Serum Albumin 0.05 mg·ml^−1 pH7.6). Compounds stocks (10 mM) were stored at −20° C. in DMSO. Compounds were tested at different concentrations: from 200 μM to 91 nM.
Reactions were performed as duplicates in Black 384 well plates (small volumes microplates; Greiner; 10 μl final reaction volume). The substrate concentration for USP7 was 300 nM Ub-AMC (Chem. Biol., 2003, 10, p. 837-846) (Boston Biochem). The concentrations of the enzyme (USP7) in specificity assays was 100 pM. The concentrations were determined in order to perform specificity assays under initial velocities at fixed substrate concentration. Compounds were pre-incubated with enzymes for 30 minutes at 25° C. Reactions were initiated by addition of substrate to the plates containing the enzymes (+/− compounds) diluted in assay buffer. Reactions were incubated for 60 minutes at 37° C. Reactions were stopped by adding acetic acid (100 mM final). Readings were performed on a Pherastar Fluorescent Reader (BMG). λ
Emission 380 nm; λ Excitation=460 nm. Data (mean values +/− standard deviation) were analyzed as % of control (no compound) and plotted as percentage versus the Log of the compound concentration using GraphPad (Prism). Data were fitted to a sigmoidal model (variable slope).

Structure (SMILES) | IC50 (USP8) | IC50 (USP7 [1]) | GI50 ([2]; Homo sapiens, HCT-116, 72 h) | GI50 [2] | IC50 (USP7 [3])
O=C(NCC1CCN(Cc2ccccc2)CC1)c1ccc2c(Cl)c3c(nc2c1)CCCC3 [Example 32, N-((1-benzylpiperidin-4-yl)methyl)-9--chloro-5,6,7,8-tetrahydroacridine-3-carboxamide] | > 200 µM | 17.6 µM | 3.1 µM |  | 
O=C(NCC1CCN(CCc2ccccc2)CC1)c1ccc2c(Cl)c3c(nc2c1)CCCC3 [Example 34, 9-chloro-N-((1-phenethylpiperidin-4-yl)methyl)-5,6,7,8-tetrahydroacridine-3-carboxamide] | > 200 µM | 24.5 µM | 2.8 µM |  | 
CN1CCC(N2CCN(C(=O)c3ccc4c(Cl)c5c(nc4c3)CCCC5)CC2)CC1 [Example 30, (9-chloro-5.6,7,8-tetrahydroacridine-3-yl)(4-(1-methylpiperidin-4-yl)piperazin-1-yl)methanone] | > 200 µM | 23 µM | 12.5 µM |  | 

Other lines, results leading:

IC50 (USP8) | IC50 (USP7 [1]) | GI50 ([2]; Homo sapiens, HCT-116, 72 h) | GI50 [2] | IC50 (USP7 [3]) | Structure (SMILES)
> 200 µM | 15.4 µM | 10 µM |  |  | O=C(NCCN1CCCCCC1)c1ccc2c(Cl)c3c(nc2c1)CCCC3 [Example 27, N-(2-(azepan-1-yl)ethyl)-9-chloro-5,6,7,8-tetrahydroacridine-3-carboxamide]
> 200 µM | 44.4 µM | 9.1 µM |  |  | CCN1CCC[C@@H]1CNC(=O)c1ccc2c(Cl)c3c(nc2c1)CCCC3 [Example 36, (R)-9-chloro-N-((1-ethylpyrrolidin-2-yl)methyl)-5,6,7,8-tetrahydroacridine-3-carboxamide]
 |  |  | 5.6 µM | 30.5 µM | CCN(CC)CCNC(=O)c1ccc2c(Cl)c3c(nc2c1)CCCC3 [Example 26, chlorhydrate of 9-chloro-5,6,7,8-tetrahydro-acridine-3-carboxylic acid (2-diethylamino-ethyl)-amide]
> 200 µM | 11.9 µM | 8.8 µM |  |  | O=C(NCCN1CCCCC1)c1ccc2c(Cl)c3c(nc2c1)CCCC3 [Example 28, 9-chloro-N-(2-(piperidin-1-yl)ethyl)-5,6,7,8-tetrahydroacridine-3-carboxamide]
> 200 µM | 24.5 µM | 11.4 µM |  |  | O=C(c1ccc2c(Cl)c3c(nc2c1)CCCC3)N1CCCCC1 [Example 31, (9-chloro-5,6,7,8-tetrahydroacridine-3-yl)(piperidin-1-yl)methanone]
